Results: PubChem BioAssay AID1919006 (Molecular Pharmacology Branch, DTP, NCI, 2023)

System: 885512-296-R-J2-PDC complex spheroid growth, % test/control
Experiment: Anticancer human tumor 885512-296-R-J2-PDC patient-derived breast carcinoma cell line growth inhibition [AhR]
Conditions: for IC50: curve of first compound; for viability, T/C: stronger effect = lower value
Excerpt: Multicellular complex tumor spheroid response to aryl hydrocarbon receptor antagonists in combination with a variety of drugs and investigational agents in selected tumor cell lines
The current study was undertaken to assess response to aryl hydrocarbon receptor antagonists in combination with standard-of-care drugs and investigational agents in solid tumor complex spheroid models. Complex spheroids include a stromal component modeled by human endothelial cells (HUVEC) and fibroblasts modeled by human mesenchymal stem cells (MSCs). The concentration ranges selected for each drug and investigational agent were based upon clinically achievable concentrations if the clinical Cmax of the agent was known.
Compounds. The drugs and investigational agents: BAY 2416964 (NSC825713), GNF351 (NSC835774), CH-223191 (NSC835775), CPI-455 (NSC825282), aza-TdCyd (NSC777586), decitabine (NSC127716), belinostat (NSC758774), entinostat (NSC756642), pevonedistat (NSC761192), tazemetostat (NSC777109), talazoparib (NSC765396), olaparib (NSC753686), selinexor (NSC780203), nedisertib (M3814, NSC802822), bortezomib (NSC756655), venetoclax (NSC766270), doxorubicin (NSC123127), elimusertib (BAY189344, NSC800525), ceralasertib (AZD6738, NSC777638), TAK-243 (NSC785004), alisertib (NSC759677), etoposide (NSC141540), topotecan (NSC609699), eribulin (NSC707389), gemcitabine (NSC613327), carboplatin (NSC241240), cisplatin (NSC119875), and SN-38 (NSC673596) were obtained from the National Cancer Institute (NCI) Developmental Therapeutics Program Chemical Repository (32). The FDA-approved anticancer drug set is available from the Developmental Therapeutics Program at https://dtp.cancer.gov/organization/dscb/obtaining/available plates.htm. […] The stock solutions were prepared in dimethyl sulfoxide (DMSO, Sigma-Aldrich, St. Louis, MO, cat. D2650), except for the platinum compounds which were prepared in saline (Quality Biological, Gaithersburg, MD, cat. 114-055-101), at 800-fold the tested concentration and stored at -70 degrees C prior to their use. All drugs and investigational agents were tested over a range starting from a high concentration at or near the clinical Cmax and decreasing in half-log increments. If the clinical Cmax for an agent had not been determined, the highest concentration tested was 10 microM (Table 1).
Cell Culture. All cells were maintained in an incubator at 37 degrees C and 5% CO2 with 95% humidity. The PDC lines were cultured according to standard operating procedures established by the NCI PDMR (https://pdmr.cancer.gov). Briefly, all PDCs were thawed and cultured in Matrigel-coated flasks prepared with a working solution of 1X Ham's F-12 nutrient mix, without supplementation (Invitrogen, Waltham, MA, cat. 11765054), 100 U/mL penicillin-streptomycin (Invitrogen, cat. 15140122), and 2.5% Matrigel (Corning Inc., Corning, NY, cat. 354248) for the first three passages. All PDCs were cultured in complete DMEM/F-12 media containing advanced DMEM/F-12 (Invitrogen, cat. 12634028), 4.9% defined fetal bovine serum, heat inactivated (HyClone Laboratories Inc., Logan, UT, cat. SH30070.03HI), 389 ng/mL hydrocortisone (Sigma-Aldrich, cat. H4001), 9.7 ng/mL human EGF recombinant protein (Invitrogen, cat. PHG0313), 23.4 microg/mL adenine (Sigma-Aldrich, cat. A2786), 97.3 U/mL penicillin-streptomycin (Invitrogen, cat. 15140122), 1.9 mM L-glutamine (Invitrogen, cat. 25030081), and 9.7 microM Y-27632 dihydrochloride (Tocris Bioscience, Bristol, United Kingdom, cat. 1254). The PDCs were cultured in complete DMEM/F12 media without 10 microM Y-27632 dihydrochloride for at least two passages prior to the screen. The established cell lines NCI-H1341 and […] were cultured in DMEM/F-12, HEPES (Invitrogen, cat. 11330032), 5% defined fetal bovine serum (HyClone Laboratories Inc., cat. SH30070.03), ITS premix universal culture supplement [insulin (5 microg/mL), transferrin (5 microg/mL), and selenious acid (5 ng/mL)] […]

[1] = second compound 0.1 µM, first compound 0.000949 µM
[2] = second compound 0.1 µM, first compound 0.003 µM
[3] = second compound 0.1 µM, first compound 0.00949 µM
[4] = second compound 0.1 µM, first compound 0.03 µM
[5] = second compound 0.1 µM, first compound 0.0949 µM
[6] = second compound 0.1 µM, first compound 0.3 µM
[7] = second compound 0.316 µM, first compound 0.000949 µM
[8] = second compound 0.316 µM, first compound 0.003 µM
[9] = second compound 0.316 µM, first compound 0.00949 µM
[10] = second compound 0.316 µM, first compound 0.03 µM
[11] = second compound 0.316 µM, first compound 0.0949 µM
[12] = second compound 0.316 µM, first compound 0.3 µM
[13] = second compound 1 µM, first compound 0.000949 µM
[14] = second compound 1 µM, first compound 0.003 µM
[15] = second compound 1 µM, first compound 0.00949 µM
[16] = second compound 1 µM, first compound 0.03 µM
[17] = second compound 1 µM, first compound 0.0949 µM
[18] = second compound 1 µM, first compound 0.3 µM
[19] = second compound 3.16 µM, first compound 0.000949 µM
[20] = second compound 3.16 µM, first compound 0.003 µM
[21] = second compound 3.16 µM, first compound 0.00949 µM
[22] = second compound 3.16 µM, first compound 0.03 µM
[23] = second compound 3.16 µM, first compound 0.0949 µM
[24] = second compound 3.16 µM, first compound 0.3 µM
[25] = second compound 10 µM, first compound 0.000949 µM
[26] = second compound 10 µM, first compound 0.003 µM
[27] = second compound 10 µM, first compound 0.00949 µM
[28] = second compound 10 µM, first compound 0.03 µM
[29] = second compound 10 µM, first compound 0.0949 µM
[30] = second compound 10 µM, first compound 0.3 µM
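Also: spheroids exposed to compounds for seven days.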

Compound	IC50 (second compound 0.1 µM) [nM]	IC50 (second compound 0.316 µM) [nM]	IC50 (second compound 1 µM) [nM]	IC50 (second compound 3.16 µM) [nM]	IC50 (second compound 10 µM) [nM]	viability, T/C [1] [%]	viability, T/C [2] [%]	viability, T/C [3] [%]	viability, T/C [4] [%]	viability, T/C [5] [%]	viability, T/C [6] [%]	viability, T/C [7] [%]	viability, T/C [8] [%]	viability, T/C [9] [%]	viability, T/C [10] [%]	viability, T/C [11] [%]	viability, T/C [12] [%]	viability, T/C [13] [%]	viability, T/C [14] [%]	viability, T/C [15] [%]	also measured
CC(C)CC(NC(=O)C(Cc1ccccc1)NC(=O)c1cnccn1)B(O)O (stereo not given) + CC(CO)NC(=O)c1cc(-c2ccc(Cl)cc2)nn(-c2cnn(C)c2)c1=O	5.22	5.67	5.45	5.42	5.75	97	86.5	10.7	0.69	0.12	0.12	96.1	99.3	11.2	0.78	0.16	0.08	98.4	94	9.2	viability, T/C [16]: 0.72%; viability, T/C [17]: 0.26%; viability, T/C [18]: 0.12%; viability, T/C [19]: 89.4%; viability, T/C [20]: 91.6%; viability, T/C [21]: 11.7%; viability, T/C [22]: 0.76%; viability, T/C [23]: 0.16%; viability, T/C [24]: 0.1%; viability, T/C [25]: 91.6%; viability, T/C [26]: 113%; viability, T/C [27]: 9.64%; viability, T/C [28]: 0.68%; viability, T/C [29]: 0.18%; viability, T/C [30]: 0.14%
CCc1c2c(nc3ccc(O)cc13)-c1cc3c(c(=O)n1C2)COC(=O)[C@]3(O)CC + CC(CO)NC(=O)c1cc(-c2ccc(Cl)cc2)nn(-c2cnn(C)c2)c1=O	< 0.949	< 0.949	< 0.949	< 0.949	< 0.949	9.08	7.28	5.78	3.29	2.16	1.46	8.34	6.02	3.71	3.2	1.99	1.09	10.7	7.68	4.79	viability, T/C [16]: 3.71%; viability, T/C [17]: 2.42%; viability, T/C [18]: 1.92%; viability, T/C [19]: 10.8%; viability, T/C [20]: 9.5%; viability, T/C [21]: 4.77%; viability, T/C [22]: 4.01%; viability, T/C [23]: 2.56%; viability, T/C [24]: 2.05%; viability, T/C [25]: 13.8%; viability, T/C [26]: 12.5%; viability, T/C [27]: 6.57%; viability, T/C [28]: 4.99%; viability, T/C [29]: 2.67%; viability, T/C [30]: 2.21%
